In patent US12503484B2, “Androstane derivatives with activity as pure or predominantly pure stimulators of SERCA2a for the treatment of heart failure” (Seismic Pharmaceuticals, priority 2019, dated 2025):
Read-outs that look alike come from different tables or passages of the source. Marks after values point to notes of the source that are not given here.

How the values were obtained:
[1] = target: dog renal Na^+/K^+ ATPase (Canis lupus familiaris (Dog) (Canis familiaris), UniProt P50997); test: biochemical; conditions: IC50 inhibition of dog renal Na+/K+ ATPase, purified dog kidney enzyme;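 note: enzyme preincubated with inhibitor 10 min at 37 °C, then K^+ and ^32P-ATP added for 15 min, released ^32P counted, activity relative to untreated control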
Description: Inhibition of Dog Renal Na^+/K^+ ATPase Activity
The compounds were thus tested for their inhibitory effect on the canine renal Na^+/K^+ ATPase enzyme.
Kidneys were excised from 1-3 year-old male beagle dogs (WuXi AppTec, Suzhou Co., Ltd. 1318 Wuzhong Ave., Wuzhong District Suzhou, 215104 P.R. China) under pentobarbital anesthesia (Import Authorization from Italian Health Ministry 0009171-09/04/2015-DGSAF-COD_UO-P, 2015). Kidneys were sliced and the outer medulla was dissected and suspended (1 g/10 ml) in a sucrose-histidine solution containing 250 mM sucrose, 30 mM histidine, and 5 mM EDTA, pH 7.2. The tissue was homogenized by using an Ultra Turrax homogenizer. The sample was centrifuged at 6,000 g for 15 min. Next, the supernatant was decanted and centrifuged at 48,000 g for 30 min. The pellet was suspended in the sucrose-histidine buffer and incubated for 20 min with a sodium-dodecyl-sulphate (SDS) solution dissolved in a gradient buffer containing 25 mM imidazole and 1 mM EDTA, pH 7.5. The sample was layered on the top of a sucrose discontinuous gradient (10, 15, and 29.4%) and centrifuged at 60,000 g for 115 min. The pellet was suspended in the gradient buffer.
Increasing concentrations of the standard ouabain, or tested compound, were incubated with 0.3 μg of purified dog kidney enzyme for 10 min at 37° C. in 120 μl final volume of a medium containing 140 mM NaCl, 3 mM MgCl2, 50 mM Hepes-Tris, 3 mM ATP, pH 7.5. Then, 10 μl of a solution containing 10 mM KCl and 20 nCi of ^32P-ATP (3-10 Ci/mmol, Perkin Elmer) were added. The reaction was allowed to continue for 15 min at 37° C. and then stopped by acidification with 20% v/v ice-cold perchloric acid. ^32P was separated by centrifugation with activated Charcoal (Norit A, Serva) and the radioactivity was counted. The inhibitory activity was expressed as percent of the control samples carried out in the absence of ouabain, or tested compound.

SERCA2a = SERCA2a (Cavia porcellus, UniProt A0A286XD73); test: SERCA2a ATPase activity in heart-derived SR microsomes from normal guinea-pig; assay type: biochemical
Chain of SERCA2a (A0A286XD73 1-997): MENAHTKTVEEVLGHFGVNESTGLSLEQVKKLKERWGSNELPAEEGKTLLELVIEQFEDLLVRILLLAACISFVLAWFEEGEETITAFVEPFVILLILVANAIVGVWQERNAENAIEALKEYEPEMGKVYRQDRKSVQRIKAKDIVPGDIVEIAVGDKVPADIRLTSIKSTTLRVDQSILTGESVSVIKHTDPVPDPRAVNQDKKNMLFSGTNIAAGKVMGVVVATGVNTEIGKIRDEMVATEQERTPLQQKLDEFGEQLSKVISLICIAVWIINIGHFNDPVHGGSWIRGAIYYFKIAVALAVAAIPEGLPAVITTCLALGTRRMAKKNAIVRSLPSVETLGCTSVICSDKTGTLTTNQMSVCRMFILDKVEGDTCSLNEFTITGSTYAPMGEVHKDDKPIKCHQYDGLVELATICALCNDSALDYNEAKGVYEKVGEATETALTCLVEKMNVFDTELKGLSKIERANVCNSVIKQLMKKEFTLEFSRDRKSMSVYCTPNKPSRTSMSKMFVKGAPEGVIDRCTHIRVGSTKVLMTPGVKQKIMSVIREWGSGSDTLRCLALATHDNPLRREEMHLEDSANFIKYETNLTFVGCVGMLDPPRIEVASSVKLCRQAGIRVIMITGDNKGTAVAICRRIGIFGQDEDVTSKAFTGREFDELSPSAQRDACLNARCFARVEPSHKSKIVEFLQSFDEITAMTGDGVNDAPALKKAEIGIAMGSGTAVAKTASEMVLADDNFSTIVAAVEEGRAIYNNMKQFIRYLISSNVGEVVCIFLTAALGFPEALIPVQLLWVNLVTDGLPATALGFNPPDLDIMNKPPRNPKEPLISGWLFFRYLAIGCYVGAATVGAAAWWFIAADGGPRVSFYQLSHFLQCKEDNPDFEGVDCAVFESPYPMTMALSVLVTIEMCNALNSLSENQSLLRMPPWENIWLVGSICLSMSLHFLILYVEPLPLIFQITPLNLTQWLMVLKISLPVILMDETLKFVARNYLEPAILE
Description: SERCA2a ATPase Activity in Heart-Derived SR Microsomes from Normal Quinea-Pig
SERCA2a activity was measured in vitro as ^32P-ATP hydrolysis at different Ca^2+ concentrations (100-4000 nM) in the absence and presence of the tested compounds, as described (Micheletti R. et al., Am J Card 2007, 99:24A-32A). Increasing concentrations of each compound (ranging from 1 to 200 nM) were pre-incubated with 2 μg of SERCA2a enriched microsomes for 5 min at 4° C. in 80 μl of a solution containing 100 mM KCl, 5 mM MgCl2, 1 μM A23187, 20 mM Tris, pH 7.5. […] SERCA2a-dependent activity was identified as the portion of total hydrolytic activity inhibited by 10 μM cyclopiazonic acid (Seidler N W et al., J Biol Chem. 1989, 264:17816-23).
Dose-response curves were fitted by using a sigmoidal equation and the activity at the maximal velocity (Vmax) and the Kd for Ca^2+ were calculated (Synergy Software KaleidaGraph 3.6). The effect of the compounds in normal guinea-pig preparations was expressed as % decrease of Kd Ca^2+ (implying an increase of affinity for Ca^2+) of a control sample run in the absence of compound (Table 2). […] Data are mean±SD, n=number of experiments, *at least p<0.05.

[2] = read-out: Kd Ca2+ (nM) mean ± SD, compound 1 nM
[3] = read-out: Kd Ca2+ (nM) mean ± SD, compound 10 nM
[4] = read-out: Kd Ca2+ (nM) mean ± SD, compound 100 nM
[5] = read-out: Kd Ca2+ (nM) mean ± SD, compound 200 nM
[6] = compound 100 nM, read-out: Kd Ca2+ (nM) mean ± SD
[7] = compound 200 nM, read-out: Kd Ca2+ (nM) mean ± SD
[8] = compound 10 nM, read-out: Kd Ca2+ (nM) mean ± SD

SMILES	IC50 [1] [nM]	% change in Ca2+ Kd vs control (negative = decrease) (SERCA2a; compound 100 nM)	% change in Ca2+ Kd vs control (negative = decrease) (SERCA2a; compound 200 nM)	other results
C[C@]12CC[C@H](CCC3CCNC3)CC1[C@@H](CO)[C@@H](O)C1C2CC[C@]2(C)C(=O)CCC12 (stereo partly drawn) [CVie410, 3beta-[2-(pirrolidin-3yl)ethyl]6alpha-hydroxymethyl-7alpha-hydroxyandrostane-17-one]	3700	–	–	–
CNCCCC/C=C1\CC[C@]2(C)C3CC[C@]4(C)C(=O)CCC4C3C(=O)[C@H](CO)C2C1 (stereo partly drawn) [CVie401, (E,Z)-3-(5-N-methylaminopentyliden]-6alpha-hydroxymethylandrostane-7,17-dione]	24000	–	–	–
CCOC(=O)CCC[C@H]1CC[C@]2(C)C3CC[C@]4(C)C(=O)CCC4C3C[C@H](O)C2C1 (stereo partly drawn) [CVie217, 4-(6alpha-hydroxy-17-oxoandrostane-3-yl) ethylbutiroate]	> 100000	−20%*	−29.4%*	% change in Ca2+ Kd vs control (negative = decrease) (SERCA2a; compound 1 nM): −20%; % change in Ca2+ Kd vs control (negative = decrease) (SERCA2a; compound 10 nM): −24.7%*; Kd (SERCA2a; [2]): 763 ± 103 nM; Kd (SERCA2a; [3]): 719 ± 142 nM; Kd (SERCA2a; [4]): 764 ± 120 nM; Kd (SERCA2a; [5]): 674 ± 150 nM
C[C@]12CCC(=CCCCN)CC1[C@@H](O)C[C@@H]1[C@@H]2CC[C@]2(C)C(=O)CC[C@@H]12 (mixture of isomers) [CVie209, (EZ)-3-(4-aminobutyliden]-6alpha-hydroxyandrostane-17-one]	800	–	–	–
CCOC(=O)CCCCC[C@H]1CC[C@]2(C)C3CC[C@]4(C)C(=O)CCC4C3C[C@H](O)C2C1 (stereo partly shown) [CVie218]	> 100000	−19.1%*	−15%*	% change in Ca2+ Kd vs control (negative = decrease) (SERCA2a; compound 1 nM): −3%; % change in Ca2+ Kd vs control (negative = decrease) (SERCA2a; compound 10 nM): −7%*; Kd (SERCA2a; [2]): 705 ± 88.8 nM; Kd (SERCA2a; [3]): 677 ± 13.8 nM; Kd (SERCA2a; [4]): 587 ± 50.5 nM; Kd (SERCA2a; [5]): 619 ± 48 nM
CNCCCCC=C1CC[C@]2(C)C3CC[C@]4(C)C(=O)CCC4C3[C@H](O)[C@H](CO)C2C1 (mixture of isomers) [CVie406, (E,Z)-3-(5-N-methylaminopentyliden)-6alpha-hydroxymethyl-7alpha-hydroxyandrostane-17-one]	1900	–	–	–
C[C@]12CC/C(=C/CCC(=O)O)CC1[C@H](O)C[C@@H]1[C@@H]2CC[C@]2(C)C(=O)CC[C@@H]12 (stereo partly drawn) [CVie204, (Z)-4-(6beta-hydroxy-17-oxoandrostane-3-yliden)butyric acid]	> 100000	+13%	−3%	Kd (SERCA2a; [6]): 493 ± 107 nM; Kd (SERCA2a; [7]): 424 ± 82.7 nM
C[C@]12CC/C(=C/CC3CCNCC3)CC1[C@@H](O)C[C@@H]1[C@@H]2CC[C@]2(C)C(=O)CC[C@@H]12 (stereo partly drawn) [CVie211, (Z)-3-[2-(piperidin-4-yl)ethyliden]-6alpha-hydroxyandrostane-17-one]	8300	–	–	–
C[C@]12CC/C(=C/CCC(=O)O)CC1[C@@H](O)C[C@@H]1[C@@H]2CC[C@]2(C)C(=O)CC[C@@H]12 (stereo partly drawn) [CVie202, (Z)-4-(6alpha-hydroxy-17-oxoandrostane-3-yliden)butyric acid]	> 100000	−7%	−6%	% change in Ca2+ Kd vs control (negative = decrease) (SERCA2a; compound 10 nM): −4%; Kd (SERCA2a; [8]): 448 ± 9.4 nM; Kd (SERCA2a; [6]): 436 ± 24.9 nM; Kd (SERCA2a; [7]): 437 ± 26.4 nM
C[C@]12CC/C(=C\CC3CCNCC3)CC1[C@@H](O)C[C@@H]1[C@@H]2CC[C@]2(C)C(=O)CC[C@@H]12 (stereo partly drawn) [CVie210, (E)-3-[2-(piperidin-4-yl)ethyliden]-6alpha-hydroxyandrostane-17-one]	13100	–	–	–
C[C@]12CC[C@H](CCC3CCNCC3)CC1[C@@H](CO)C(=O)[C@@H]1[C@@H]2CC[C@]2(C)C(=O)CC[C@@H]12 (stereo partly drawn) [CVie411, 3beta-[2-(piperidin-4-yl)ethyl]-6alpha-hydroxymethylandrostane-7,17-dione]	1900	0%	−4.9%	Kd (SERCA2a; [6]): 428 ± 76.6 nM; Kd (SERCA2a; [7]): 407 ± 111 nM
C[C@]12CCC(=CCC3CCNCC3)CC1[C@@H](CO)C(=O)C1C2CC[C@]2(C)C(=O)CCC12 (mixture of isomers) [CVie405, (E,Z)-3-[2-(piperidin-4-yl)ethyliden]-6alpha-hydroxymethylandrostane-7,17-dione]	7900	–	–	–
C[C@]12CC[C@H](CCC3CNC3)CC1[C@@H](CO)[C@@H](O)C1C2CC[C@]2(C)C(=O)CCC12 (stereo partly shown) [CVie408]	3300	−20.7%*	−21%*	Kd (SERCA2a; [4]): 356 ± 33.8 nM; Kd (SERCA2a; [5]): 355 ± 66.9 nM
C[C@]12CC[C@H](CCC3CCNC3)CC1[C@@H](CO)C(=O)C1C2CC[C@]2(C)C(=O)CCC12 (stereo partly drawn) [CVie409, 3beta-[2-(pirrolidin-3yl)ethyl]-6alpha-hydroxymethylandrostane-7,17-dione]	3400	–	–	–
C[C@]12CC/C(=C/CC3CNC3)CC1[C@@H](O)C[C@@H]1[C@@H]2CC[C@]2(C)C(=O)CC[C@@H]12 (stereo partly drawn) [CVie206, (Z)-3-[2-(azetidin-3-yl)ethyliden]-6alpha-hydroxyandrostane-17-one]	5900	−13.7%*	−15.1%*	Kd (SERCA2a; [4]): 678 ± 86.7 nM; Kd (SERCA2a; [5]): 667 ± 55.6 nM
C[C@]12CC=C(CCC3CCNCC3)CC1[C@@H](O)C[C@@H]1[C@@H]2CC[C@]2(C)C(=O)CC[C@@H]12 (stereo partly drawn) [CVie208, 3-[2-(piperidin-4-yl)ethyl]-6alpha-hydroxyandrost-2-ene-17-one hydroiodide]	10400	−19.1%*	−21.7%	Kd (SERCA2a; [6]): 362 ± 72.2 nM; Kd (SERCA2a; [7]): 350 ± 109 nM
C[C@]12CC/C(=C\CC3CNC3)CC1[C@@H](O)C[C@@H]1[C@@H]2CC[C@]2(C)C(=O)CC[C@@H]12 (stereo partly drawn) [CVie205, (E)-3-[2-(azetidin-3-yl)ethyliden]-6alpha-hydroxyandrostane-17-one]	7000	−16.7%*	−13.1%*	Kd (SERCA2a; [4]): 656 ± 56.6 nM; Kd (SERCA2a; [5]): 683 ± 46.4 nM
C[C@]12CC[C@H](CCC3CNC3)CC1[C@@H](CO)C(=O)C1C2CC[C@]2(C)C(=O)CCC12 (stereo partly shown) [CVie407]	3500	−8.9%	0%	Kd (SERCA2a; [4]): 390 ± 91.4 nM; Kd (SERCA2a; [5]): 428 ± 87.3 nM
C[C@]12CC/C(=C\CCC(=O)O)CC1[C@@H](O)C[C@@H]1[C@@H]2CC[C@]2(C)C(=O)CC[C@@H]12 (stereo partly drawn) [CVie201, (E)-4-(6alpha-hydroxy-17-oxoandrostane-3-yliden)butyric acid]	> 100000	−15%*	–	% change in Ca2+ Kd vs control (negative = decrease) (SERCA2a; compound 10 nM): −14%*; Kd (SERCA2a; [8]): 459 ± 57.1 nM; Kd (SERCA2a; [6]): 454 ± 53.2 nM
C[C@]12CCC(=CCC3CCNC3)CC1[C@@H](CO)C(=O)C1C2CC[C@]2(C)C(=O)CCC12 (mixture of isomers) [CVie402, (E,Z)-3-[2-(pirrolidin-3yl)ethyliden]-6alpha-hydroxymethylandrostane-7,17-dione]	4600	–	–	–
C[C@]12CC=C(CCCCN)CC1[C@@H](O)CC1C2CC[C@]2(C)C(=O)CCC12 (stereo partly drawn) [CVie207, (E)-3-(4-aminobutyl)-6alpha-hydroxyandrost-2-ene-17-one hydroiodide]	3900	–	–	–
C[C@]12CC/C(=C\CC3CNC3)CC1[C@@H](CO)C(=O)C1C2CC[C@]2(C)C(=O)CCC12 (stereo partly shown) [CVie403]	2900	–	–	–
